Source: paper PMC4351541 (Scientific Reports, 2015)

Experiments:
[1] = biological target: nAChRs (L. migratoria manilensis α1 and R. norvegicus β2) (Locusta migratoria manilensis, UniProt P12390+W6ECM5); test: Two-electrode voltage-clamp agonist dose-response on nAChRs expressed in Xenopus oocytes, with or without Na+/K+ ATPase; type: cell-based; conditions: for effect of Na^+/K^+ ATPase co-expression on agonist sensitivity: co-expression of Na^+/K^+ ATPase vs nAChRs alone, increase not removed by ouabain
Sequence of nAChRs (L. migratoria manilensis α1 and R. norvegicus β2) (W6ECM5 21-570): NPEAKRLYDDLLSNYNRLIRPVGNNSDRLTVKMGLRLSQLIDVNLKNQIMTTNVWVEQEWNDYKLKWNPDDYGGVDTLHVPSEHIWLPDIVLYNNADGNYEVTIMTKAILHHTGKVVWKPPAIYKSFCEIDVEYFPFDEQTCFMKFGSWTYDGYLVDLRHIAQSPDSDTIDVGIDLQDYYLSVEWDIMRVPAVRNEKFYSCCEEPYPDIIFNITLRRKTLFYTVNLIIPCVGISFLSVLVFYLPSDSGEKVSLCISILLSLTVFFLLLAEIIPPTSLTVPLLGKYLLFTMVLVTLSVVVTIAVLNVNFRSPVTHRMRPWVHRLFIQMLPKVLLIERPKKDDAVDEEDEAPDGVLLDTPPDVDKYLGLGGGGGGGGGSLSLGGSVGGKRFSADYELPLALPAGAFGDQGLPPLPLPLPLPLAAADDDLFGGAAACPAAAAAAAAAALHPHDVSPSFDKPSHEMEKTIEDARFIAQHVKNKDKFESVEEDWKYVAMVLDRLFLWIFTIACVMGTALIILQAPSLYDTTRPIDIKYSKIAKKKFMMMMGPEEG
Sequence of nAChRs (L. migratoria manilensis α1 and R. norvegicus β2) (P12390 25-500): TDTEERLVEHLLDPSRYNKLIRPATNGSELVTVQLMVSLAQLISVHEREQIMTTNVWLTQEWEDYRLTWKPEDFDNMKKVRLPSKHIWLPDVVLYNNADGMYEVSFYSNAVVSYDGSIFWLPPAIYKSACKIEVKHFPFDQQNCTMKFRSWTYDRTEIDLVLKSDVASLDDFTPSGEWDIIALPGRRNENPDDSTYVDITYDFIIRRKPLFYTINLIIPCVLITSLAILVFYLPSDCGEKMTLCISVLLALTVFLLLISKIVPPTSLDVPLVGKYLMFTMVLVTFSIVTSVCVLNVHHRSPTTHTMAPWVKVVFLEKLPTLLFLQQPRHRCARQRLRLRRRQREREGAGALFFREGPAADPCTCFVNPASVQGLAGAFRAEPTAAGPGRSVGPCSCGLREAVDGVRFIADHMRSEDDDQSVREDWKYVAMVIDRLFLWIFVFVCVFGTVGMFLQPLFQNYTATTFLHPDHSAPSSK
From the text: To characterize the influence of Na^+/K^+ ATPase on nAChR function, nAChRs were expressed with or without Na^+/K^+ ATPase in Xenopus oocytes.
(B) Does-response curves for nicotine. (C) Does-response curves for imidacloprid. The curves from the oocytes expressing nAChRs (L. migratoria manilensis subunit α1 and R. norvegicus subunit β2) were indicated by open squares. The curves from the oocytes co-expressing nAChRs and Na^+/K^+ ATPase (subunit α1 and β1) were indicated by solid triangles (without ouabain) and open triangles (with ouabain).
(§1) The L. migratoria manilensis subunit α1 (KF813096) and subunit β1 (KF813099) of Na^+/k^+ ATPase, and subunit α1 (KF873578) of nAhCRs were subcloned into the expression vector pGH19 at sites of BamHIand XbaI, BamHI and ApaI, and EcoRI and XbaI, respectively. Rattus norvegicus β2 subunit (L31622) was also subcloned into the expression vector pGH19 as described previously. The cRNAs of all subunits were generated as described previously. Xenopus oocyte preparation and cRNA injection were performed as described previously. Electrophysiological recordings were made using a two-electrode voltage clamp (Multiclamp 700B Amplifier; Axon Instruments, Foster, CA, USA) as previously described. The measurement of the current of Na^+/K^+ ATPase was performed as described.
Differences in responses (currents), Imax and EC50 values were analyzed by one-way ANOVA with at least three repeats (different batches of oocytes from different frogs). Multiple comparisons between the groups were performed using S-N-K method. The level of significance for results was set at p < 0.05.

[2] = test system: Na^+/K^+ ATPase (α1 and β1); test: Pump-mediated steady-state current of Na+/K+ ATPase in Xenopus oocytes (two-electrode voltage clamp); type: cell-based, Locusta migratoria manilensis; conditions: for effect on Na^+/K^+ ATPase steady-state current directly: oocytes expressing Na^+/K^+ ATPase without nAChRs, 1 μM nicotine and 1 μM DHβE
Method: as §1

Compound	EC50 ([1]; oocytes only expressing nAChRs) [µM]	effect on Na^+/K^+ ATPase steady-state current directly [2]	effect of Na^+/K^+ ATPase co-expression on agonist sensitivity [1]	steady state current of Na^+/K^+ ATPase ([2]; oocytes co-expressing Na^+/K^+ ATPase and nAChRs, 1 μM nicotine, with 1 μM DHβE to suppress nAChR currents)
CC(=O)OCC[N+](C)(C)C [ACh, acetylcholine]	63.2 ± 5.14			
CO[C@H]1CC=C2CCN3CCC4=C(CC(=O)OC4)[C@]23C1 [DHβE, dihydro-β-erythroidine]		no effects		
O=[N+]([O-])NC1=NCCN1Cc1ccc(Cl)nc1 [imidacloprid]			increase agonist sensitivities	
CN1CCC[C@H]1c1cccnc1 [nicotine]		no effects	increase agonist sensitivities	increased significantly
